Experimental data: ChEMBL document CHEMBL3526130, “An evaluation of using rat-derived single-dose neuropharmacokinetic parameters to project accurately large animal unbound brain drug concentrations” (Drug Metab Dispos, 2012)

Tests used:
Format in all cases: ADME, organism-based
[1] = AUC(0 to 7 hrs) in Sprague-Dawley rat plasma at 35 mg/kg, sc by LC-MS/MS analysis; design: time < 7 hr, dose 35 mg/kg, route subcutaneous
[2] = AUC(0 to infinity) in Sprague-Dawley rat plasma at 35 mg/kg, sc by LC-MS/MS analysis; design: time infinity, dose 35 mg/kg, route subcutaneous
[3] = AUC(0 to 7 hrs) in Sprague-Dawley rat cerebrospinal fluid at 35 mg/kg, sc by LC-MS/MS analysis; design: time < 7 hr, dose 35 mg/kg, route subcutaneous
[4] = AUC(0 to infinity) in Sprague-Dawley rat cerebrospinal fluid at 35 mg/kg, sc by LC-MS/MS analysis; design: dose 35 mg/kg, route subcutaneous, time infinity
Nucleic Acid [5] = assay: Ratio of drug level in brain to plasma in Sprague-Dawley rat at 35 mg/kg, sc by LC-MS/MS analysis; design: dose 35 mg/kg, route subcutaneous
Nucleic Acid [6] = assay: Ratio of drug level in cerebrospinal fluid to unbound plasma concentration in Sprague-Dawley rat at 35 mg/kg, sc by LC-MS/MS analysis; design: dose 35 mg/kg, route subcutaneous; conditions: in vivo
[7] = Ratio of unbound brain concentration to drug level in cerebrospinal fluid in Sprague-Dawley rat at 35 mg/kg, sc by LC-MS/MS analysis; design: dose 35 mg/kg, route subcutaneous; conditions: in vivo
[8] = Ratio of unbound drug level in brain to plasma in Sprague-Dawley rat at 35 mg/kg, sc by LC-MS/MS analysis; design: dose 35 mg/kg, route subcutaneous
[9] = AUC(0 to 7 hrs) in Sprague-Dawley rat brain at 35 mg/kg, sc by LC-MS/MS analysis; design: time < 7 hr, dose 35 mg/kg, route subcutaneous
[10] = AUC(0 to infinity) in Sprague-Dawley rat brain at 35 mg/kg, sc by LC-MS/MS analysis; design: dose 35 mg/kg, route subcutaneous, time infinity
[11] = AUC(0 to 7 hrs) in Sprague-Dawley rat plasma at 10 mg/kg, sc by LC-MS/MS analysis; design: time < 7 hr, dose 10 mg/kg, route subcutaneous
[12] = AUC(0 to infinity) in Sprague-Dawley rat plasma at 10 mg/kg, sc by LC-MS/MS analysis; design: dose 10 mg/kg, route subcutaneous, time infinity
[13] = AUC(0 to 7 hrs) in Sprague-Dawley rat cerebrospinal fluid at 10 mg/kg, sc by LC-MS/MS analysis; design: time < 7 hr, dose 10 mg/kg, route subcutaneous
[14] = AUC(0 to infinity) in Sprague-Dawley rat cerebrospinal fluid at 10 mg/kg, sc by LC-MS/MS analysis; design: time infinity, dose 10 mg/kg, route subcutaneous
[15] = Ratio of drug level in brain to plasma in Sprague-Dawley rat at 10 mg/kg, sc by LC-MS/MS analysis; design: dose 10 mg/kg, route subcutaneous; conditions: read-out: BPR
[16] = Ratio of unbound brain concentration to drug level in cerebrospinal fluid in Sprague-Dawley rat at 10 mg/kg, sc by LC-MS/MS analysis; design: dose 10 mg/kg, route subcutaneous; conditions: in vivo
[17] = Ratio of unbound drug level in brain to plasma in Sprague-Dawley rat at 10 mg/kg, sc by LC-MS/MS analysis; design: dose 10 mg/kg, route subcutaneous
[18] = AUC(0 to 7 hrs) in Sprague-Dawley rat brain at 10 mg/kg, sc by LC-MS/MS analysis; design: time < 7 hr, dose 10 mg/kg, route subcutaneous
[19] = AUC(0 to infinity) in Sprague-Dawley rat brain at 10 mg/kg, sc by LC-MS/MS analysis; design: time infinity, dose 10 mg/kg, route subcutaneous

Row | AUC(0-t) at 7 h [1] [ng·h/mL] | AUC(0-inf) [2] [ng·h/mL] | AUC(0-t) at 7 h [3] [ng·h/mL] | AUC(0-inf) [4] [ng·h/mL] | BPR (Nucleic Acid [5]) | Ratio (Nucleic Acid [6]) | Ratio [7] | Kp uu [8] | AUC(0-t) at 7 h [9] [ng·h/mL] | AUC(0-inf) [10] [ng·h/mL] | AUC(0-t) at 7 h [11] [ng·h/mL] | AUC(0-inf) [12] [ng·h/mL] | AUC(0-t) at 7 h [13] [ng·h/mL] | AUC(0-inf) [14] [ng·h/mL] | Kp [15] | Ratio [16] | Kp uu [17] | AUC(0-t) at 7 h [18] [ng·h/mL] | AUC(0-inf) [19] [ng·h/mL] | Compound
1 | 4920 | 5310 | 302 | 304 | 0.38 | 0.23 | 0.22 | 0.05 | 1850 | 1880 | – | – | – | – | – | – | – | – | – | C=C[C@H]1C[N@@]2CC[C@H]1C[C@@H]2[C@@H](O)c1ccnc2ccc(OC)cc12 [QUINIDINE]
2 | – | – | – | – | – | – | – | – | – | – | 930 | 958 | 401 | 421 | 13.4 | 0.89 | 1.08 | 12500 | 12900 | CN(C)CCCC1(c2ccc(F)cc2)OCc2cc(C#N)ccc21 (racemic) [CITALOPRAM]
